The nature of data set [1]: refractive index (Na D-line) (dimensionless). As to conditions: 298.15 K; 101.33 kPa; Liquid; Standard Abbe refractometry.
The conditions of data set [2]: Liquid; for mass density: 298.15 K, 101.33 kPa, Vibrating tube method.

The values that follow come from the NIST ThermoML archive (doi:10.1021/je060314n).

Numbers after ± are expanded uncertainties.

As for `CCCCOC(=O)CC` [butyl propanoate], in data set [1], the refractive index (in general, a measure of how strongly the sample bends light) stood at 1.3992 ± 0.0005. The mass density (as a rule, mass per unit of volume) in data set [2] is reported as 870.88 ± 0.23 kg/m3. In addition, the vapor or sublimation pressure (in general, the pressure of vapour in equilibrium with the condensed phase) in data set [2] (418.69 K) is recorded as 101.3 ± 2 kPa.
As for `CCCO` [propan-1-ol], the refractive index in data set [1] is reported as 1.3836 ± 0.0005. Also, the mass density in data set [2] is on record as 799.62 ± 0.14 kg/m3. Moreover, in data set [2] (369.75 K), the “vapor or sublimation pressure” value is 101.3 ± 2 kPa.
As to `CCCOCCC` [dipropyl ether], in data set [1], the refractive index is on record as 1.3784 ± 0.0005. The mass density in data set [2] turned out to be 741.81 ± 0.16 kg/m3. Also, in data set [2] (363.16 K), the “vapor or sublimation pressure” value is on record as 101.3 ± 2 kPa.
